In PMC11459966, “Oral pharmacokinetics and efficacy of oral phospholipid remdesivir nucleoside prodrugs against SARS-CoV-2 in mice” (Antimicrobial Agents and Chemotherapy, 2024):
Read-outs that look alike come from different tables or passages of the source.

Tests used:
[1] = parameters: method as in PMID 38776389; conditions: twice daily oral 30 mg/kg doses, BALB/c mice ref 10; cited from earlier work
[2] = test system: SARS-CoV-2 isolate USA-WA1/2020; test: microbe, parasite or virus in culture
[3] = test system: SARS-CoV-2 isolate USA-WA1/2020; test: microbe, parasite or virus in culture; format: cell-based
Vero-TMPRSS2 cells = test: Cell viability assay (CellTiter-Glo), Vero-TMPRSS2; format: cell-based, African green monkey; conditions: 48 h incubation
Method: Cell viability assays (Table 1) were performed as previously described ([7]). Cells were cultured and seeded as per in vitro antiviral studies in opaque walled 96-well cell culture plates and incubated overnight for Huh7.5, A2T2-A549, and Vero-E6-TMPRSS2 cells and for 2 days for Calu-3 cells. Compounds or controls were added at the indicated concentrations in a total volume of 100 µL, and cells were incubated for 48 h. An equal volume of CellTiter-Glo reagent (Promega, Cat. #G7570) or CellTiter-Glo 2.0 reagent (Promega, Cat. #G9241) was added and mixed, and luminescence was recorded on a Veritas Microplate Luminometer (Turner BioSystems) or a Spark Multimode plate reader (Tecan) according to manufacturer instructions. Percent viability was normalized to DMSO controls, and CC50 values were derived from best fit curves calculated in Prism 10.

[4] = 5-day oral tolerability study with terminal pharmacokinetics in BALB/c mice; format: in vivo; conditions: 80 mg/kg or 100 mg/kg daily PO
Method: Fig 3 Oral RVn prodrugs maintain high serum levels after repeated dosing in mice and hamsters. Multiple-dose oral tolerability and pharmacokinetics in mice and Syrian hamsters: (A and B) 5-day oral tolerability study in BALB/c mice with pharmacokinetics obtained after the final dose. Male 20–22 g mice were given the indicated drugs at (A) 80 mg/kg or (B) 100 mg/kg PO daily in 0.1 M sodium carbonate/bicarbonate pH 9 for 5 days. Plasma was obtained after the last dose at 1, 3, 6, and 12 h (In Vivo Technologies, Moffatt Field, CA). (C) 7-day oral tolerability study in Syrian hamsters with pharmacokinetics obtained after the final dose. […] All plasma samples were analyzed to determine prodrug levels (Aliri Bio, Colorado Springs, CO).
After fortification, 50 µL of plasma was crashed with 400 µL of methanol containing 10 ng/mL of the internal standard (V2066). One hundred fifty microliters of the supernatant was removed and diluted with 150 µL of water in a clean 96 well injection plate.
Chromatography for the prodrugs was performed on a Raptor Biphenyl (2.1 × 50) column at a flow rate of 0.5 mL/min. A gradient method starting at 60% B (0.1% formic acid in 90:10 methanol:acetonitrile) for 30 s and then ramping to 95% B over 2.5 min. This composition was held for 1.0 min before being returned to starting conditions and re-equilibration to 40% A (10 mM ammonium formate with 0.2% formic acid in water).
Oral pharmacokinetic studies were carried out at In Vivo Technologies (Moffatt Field, CA) in male BALB/c mice, 22–23 g under IACUC protocol number IVT-11–010Y12 (LifeSource Animal Care and Use Committee). […] Blood was obtained by facial vein or terminal cardiac puncture at the indicated times and plasma was frozen for analysis. Similar procedures were followed for 5-day tolerability and terminal dose pharmacokinetic studies in mice at oral daily doses of 80 or 100 mg/kg.

[5] = test system: SARS-CoV-2 isolate USA-WA1/2020
[6] = test system: SARS-CoV-2 isolate USA-WA1/2020; remark: listed apart in the source
[7] = test system: SARS-CoV-2 isolate USA-WA1/2020; remark: listed apart in the source
[8] = test system: SARS-CoV-2 isolate USA-WA1/2020; parameters: method as in PMID 37040439; conditions: Calu-3, dotted lines of Fig. 2 and 3 ref 7; read-out: in vitro EC90 for SARS-CoV-2 infection in Calu-3 cells; cited from earlier work
Calu-3 cells = test system: Calu-3 cells; parameters: method as in PMID 37040439; conditions: Calu-3, CellTiter-Glo, previously published, identical conditions ref 7; cited from earlier work
Huh7.5 cells = test system: Huh7.5 cells; parameters: method as in PMID 37040439; conditions: Huh7.5, CellTiter-Glo, previously published, identical conditions ref 7; cited from earlier work
A2T2-A549 cells = test: Cell viability assay (CellTiter-Glo), A2T2-A549; conditions: A2T2-A549, CellTiter-Glo, 48 h incubation
[9] = Single dose PO or IV plasma pharmacokinetics and tolerability in BALB/c mice; conditions: BALB/c mice

## CC(C)C(=O)OC[C@H]1O[C@@](C#N)(c2ccc3c(N)ncnn23)[C@H](O)[C@@H]1O [Obeldesivir GS-5245, reference compound]
[1]
  daily systemic exposure: 108 µM·h
[2]; Severe acute respiratory syndrome coronavirus 2, read-out: EC50 μM ± SD
  EC50: 1.2 ± 0.084 µM
[2]; Severe acute respiratory syndrome coronavirus 2, read-out: EC90 μM ± SD
  EC90: 1.89 ± 0.46 µM

## CCCCCCCCCCCCCCCCCCOCC(COP(=O)(O)OC[C@H]1O[C@@](C#N)(c2ccc3c(N)ncnn23)[C@H](O)[C@@H]1O)OCc1ccc(C#N)cc1 (some centres unmarked) [Compound V2067]
[3]; Calu-3
  Relative activity vs RVn (RVN EC50/Test Compound EC50): 12.5×
[3]; Calu-3 cells, 44–48 hpi
  EC50: 0.053 ± 0.018 µM
  EC90: 0.172 ± 0.14 µM
Vero-TMPRSS2 cells
  CC50: 57 µM
[4]
  tolerability of once-daily oral doses for 5 days: no adverse clinical effects were noted
[5]; A2T2-A549
  Relative activity vs RVn (RVN EC50/Test Compound EC50): 14.1×
  SI (CC50/EC50): 386
[5]; read-out: EC50 μM ± SD, A2T2-A549 cells, 48 hpi
  EC50: 0.213 ± 0.026 µM
[5]; read-out: EC90 μM ± SD, A2T2-A549 cells, 48 hpi
  EC90: 0.441 ± 0.071 µM
[6]; Huh7.5
  Relative activity vs RVn (RVN EC50/Test Compound EC50): 37.7×
  SI (CC50/EC50): 1,311
[6]; read-out: EC50 μM ± SD, Huh7.5 cells, 48 hpi
  EC50: 0.036 ± 0.014 µM
[6]; read-out: EC90 μM ± SD, Huh7.5 cells, 48 hpi
  EC90: 0.096 ± 0.037 µM
[7]; Vero-TMPRSS2
  Relative activity vs RVn (RVN EC50/Test Compound EC50): 23.4×
  SI (CC50/EC50): 1,239
[7]; read-out: EC50 μM ± SD, Vero-TMPRSS2 cells, 32 hpi
  EC50: 0.046 ± 0.014 µM
[7]; read-out: EC90 μM ± SD, Vero-TMPRSS2 cells, 32 hpi
  EC90: 0.107 ± 0.02 µM
[8]
  EC90: 0.082 µM
Calu-3 cells
  CC50: 60.2 µM
Huh7.5 cells
  CC50: 47.2 µM
A2T2-A549 cells
  CC50: 82.3 µM
[9]; 20, 60 or 180 mg/kg single oral dose
  tolerability of single escalating oral doses: well tolerated with no appreciable adverse effects
[9]; IV, 7 mg/kg, plasma
  AUC: 36.16 µM·h
  Cmax: 116 µM
  T1/2: 0.23 h
[9]; Oral, 20 mg/kg
  AUC: 64.70 µM·h
  CL/F: 0.373 L/h/kg
  Cmax: 8.83 µM
  T1/2: 4.06 h
  Vd/F: 2.18 L/kg
[9]; Oral, 60 mg/kg
  AUC: 154.00 µM·h
  CL/F: 0.45 L/h/kg
  Cmax: 24.9 µM
  T1/2: 6.83 h
  Vd/F: 4.38 L/kg
[9]; Oral, 180 mg/kg
  AUC: 332.00 µM·h
  CL/F: 0.49 L/h/kg
  Cmax: 41 µM
  T1/2: 12.40 h
  Vd/F: 8.74 L/kg
[9]; oral vs IV (7 mg/kg) prodrug exposure, printed on the 20 mg/kg oral lines
  F% (oral bioavailability): 57.0%
